PubChem BioAssay (NCI)
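Cultured in 96-well plates, cells were exposed to test compound for 48 hours across five concentrations. Abbreviation: GI50, concentration required for 50% inhibition of growth. At the TGI there is no net growth.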

Experiments:
Test in all cases: DTP human tumour cell line panel, 48 h
MOLT-4 leukemia = tested on: MOLT-4 leukemia
UACC-257 melanoma = tested on: UACC-257 melanoma
NCI-H226 lung = tested on: NCI-H226 lung
SK-MEL-28 melanoma = tested on: SK-MEL-28 melanoma
EKVX NSCLC = tested on: EKVX NSCLC
UACC-62 melanoma = tested on: UACC-62 melanoma
A549 NSCLC = tested on: A549 NSCLC
SK-MEL-2 melanoma = tested on: SK-MEL-2 melanoma
ACHN renal = tested on: ACHN renal
KM12 colon = tested on: KM12 colon

| SMILES | GI50 (MOLT-4 leukemia) [µM] | TGI (MOLT-4 leukemia) [µM] | GI50 (UACC-257 melanoma) [µM] | TGI (UACC-257 melanoma) [µM] | GI50 (NCI-H226 lung) [µM] | TGI (NCI-H226 lung) [µM] | GI50 (SK-MEL-28 melanoma) [µM] | TGI (SK-MEL-28 melanoma) [µM] | GI50 (EKVX NSCLC) [µM] | TGI (EKVX NSCLC) [µM] | GI50 (UACC-62 melanoma) [µM] | TGI (UACC-62 melanoma) [µM] | GI50 (A549 NSCLC) [µM] | TGI (A549 NSCLC) [µM] | GI50 (SK-MEL-2 melanoma) [µM] | TGI (SK-MEL-2 melanoma) [µM] | GI50 (ACHN renal) [µM] | TGI (ACHN renal) [µM] | GI50 (KM12 colon) [µM] | TGI (KM12 colon) [µM] |
| --- | --- | --- | --- | --- | --- | --- | --- | --- | --- | --- | --- | --- | --- | --- | --- | --- | --- | --- | --- | --- |
| COc1ccc2c(c1)N(CCO)C1=C(C(=O)OC1)C2c1ccccc1 (stereo unspecified) | 3.63 | > 50 | 1.87 | > 50 | 1.55 | 19 | 2.98 | > 50 | 2.39 | > 50 | 1.72 | > 50 | 2.12 | > 50 | 1.61 | 4.74 | 3.78 | > 50 | 1.48 | 12 |
| O=C(NN1C(=O)CSC12CCCC2)C(O)c1ccccc1 (stereo unspecified) | > 100 | > 100 | > 100 | > 100 | > 100 | > 100 | > 100 | > 100 | > 100 | > 100 | > 100 | > 100 | > 100 | > 100 | > 100 | > 100 | > 100 | > 100 | > 100 | > 100 |
| C1CCN2CC3CCCN4CCCC(C2C1)C34 (stereo unspecified) | – | > 100 | – | > 100 | – | > 100 | – | > 100 | – | > 100 | – | > 100 | – | > 100 | – | > 100 | – | > 100 | – | > 100 |
| O=C1C(=O)N(c2cccc(C(F)(F)F)c2)C(=O)C(=O)C1c1nc2ccccc2s1 | – | > 100 | – | > 100 | – | > 100 | – | > 100 | – | > 100 | – | > 100 | – | > 100 | – | > 100 | – | > 100 | – | > 100 |
| CC(C)(C)c1ccc(O)c(CN(Cc2cc(C(C)(C)C)ccc2O)C2CCCCC2)c1 | – | 49.8 | – | 37.4 | 28.5 | > 100 | – | 27.2 | – | > 63.7 | – | 31.4 | – | > 56.7 | – | 35.4 | – | 37.4 | – | 41.2 |
| CN1CCN(Cc2ccc(NC(=O)c3cncc(C#Cc4cnn5ccccc45)c3)cc2C(F)(F)F)CC1 | 0.358 | 3.56 | 1.15 | 3 | 0.592 | 3.43 | 1.22 | 3.53 | 0.786 | 2 | 0.996 | 2.38 | 0.723 | 3.56 | 0.891 | 2.02 | 0.873 | 3.72 | 0.016 | 1.14 |
| COc1cc2ncn(-c3cc(OCc4ccccc4C(F)(F)F)c(C(C)=O)s3)c2cc1OC | > 25 | > 25 | > 25 | > 25 | > 25 | > 25 | > 25 | > 25 | > 25 | > 25 | > 25 | > 25 | > 25 | > 25 | > 25 | > 25 | > 25 | > 25 | > 25 | > 25 |
| N#Cc1c(N)nc(N2CCSCC2)c(C#N)c1-c1ccc(O)cc1 | 11.6 | 34.5 | 21.9 | 52.6 | 21.9 | 58.5 | 15.5 | 35 | 27.5 | > 100 | 13 | 26.2 | 30.7 | > 100 | 51 | > 100 | 18.9 | 59 | 20.2 | 92.2 |
| O=C(Nc1cccc(Cl)c1)c1cc(N=Nc2ccc([N+](=O)[O-])cc2Cl)ccc1O | 1.74 | 4.4 | 2.55 | 6.52 | 2.88 | 16.6 | 2.88 | 10.9 | 2.16 | 6.57 | 2.44 | 6.65 | 3.01 | > 100 | 1.81 | 4.04 | 2.3 | 6.46 | 1.57 | 4.61 |
| CC[C@]12C=CCN3CC[C@@]4(c5ccc(OC)cc5N(C)[C@H]4[C@@](O)(C(=O)OC)[C@@H]1OC(=O)CCC(=O)N[C@H](Cc1c[nH]c4ccccc14)C(=O)OC)[C@@H]32 | 3.25 | > 100 | 6 | 23.1 | 5.39 | 27.5 | 2.21 | 5.44 | 10.7 | 35.7 | 2.42 | 7.19 | 5.36 | 22.1 | 17 | 37.3 | 13.4 | 52.7 | 10.1 | 36 |
| CO[C@@H]1[C@H]2[C@@H](C)c3ccoc3C[C@@H]2[C@@]2(C)CC[C@H](OC(=O)c3ccccc3)[C@](C)(C(=O)O)[C@]2(O)[C@@H]1OC(=O)c1ccccc1 | 9.67 | 38.4 | 15.9 | 40.7 | 9.77 | 26.7 | 14.5 | > 50 | 11.1 | 45.6 | 7.12 | 13.6 | 10.6 | > 50 | 24.1 | > 50 | 7.98 | 18.9 | 8.83 | 33.5 |
| CCOC(=O)c1csc(NC(=O)COc2cccc(/C=C3\CSc4ccccc4C3=O)c2)n1 | > 100 | > 100 | 5.72 | 16.7 | 1.52 | 3.41 | 2.51 | 6.18 | 2.29 | 19.9 | 2.61 | 7.02 | 2.41 | 18.5 | 0.448 | 0.989 | 2.64 | 8.99 | 0.289 | 1.35 |
| CC(=O)NC(CCCCN(Cc1ccccc1)C(=O)N(CCCl)N=O)C(=O)NCc1ccccc1 (stereo unspecified) | – | > 82.1 | – | > 44.6 | – | > 96.7 | – | > 100 | – | 97.9 | – | 36.5 | – | 49.5 | – | 62.2 | – | 41 | – | 63.7 |
| CCOC(=O)C1SC(=Nc2ccc(Cl)cc2C)N=C1C (stereo unspecified) | – | 47.9 | – | 51.9 | – | 63.5 | – | 73.5 | – | 75.2 | – | 27.9 | – | 86.2 | – | 35.8 | – | 57.2 | – | 35.1 |
